Experimental data from PMC6324813, “Biological evaluation of isoflavonoids from Genista halacsyi using estrogen-target cells: Activities of glucosides compared to aglycones” (PLoS ONE, 2019).
Where two headings read alike, the source gives them in different places.

What was measured:
Ishikawa cells = assay: Induction of AlkP expression in Ishikawa cells; format: cell-based, human; settings: for Induction of Alkaline Phosphatase Expression (Ishikawa cells) AUC (%): % of AUC of luciferase response of archetypal 3, 4, 5 or 8 up to 0.3, 10, 1.0 and 3.0 μM; for Ratio of AUC (AlkP / Lucif): AUCAlkP / AUCluciferase; for EC (25% of 0.1 nM E2 effect) / EC50: Homo sapiens, Ishikawa; for EC (25% of 0.1 nM E2 effect) / Induction of AlkP expression (Ishikawa cells) Agonism at 1μΜ, class: 72 h; for EC (25% of 0.1 nM E2 effect): concentration required to achieve 25% of the effect of 0.1 nM E2, read-out: Induction of Alkaline Phosphatase Expression (Ishikawa cells) EC25E2; for EC50: read-out: Induction of Alkaline Phosphatase Expression (Ishikawa cells) EC50E2; for Induction of AlkP expression (Ishikawa cells) Agonism at 1μΜ, class: compounds 1 μM
Procedure: Induction of AlkP expression of Ishikawa cells is considered as a reliable in vitro measure of estrogenic activity. Assessment of AlkP expression in Ishikawa cells was carried as already described. Briefly, the cells were plated in 96-well plates at a density of 12,000 cells per well in phenol-red-free MEM supplemented with 1 μg/mL insulin and 5% DCC-FBS. […] Data on the dependence of AlkP activity on isoflavonoid concentration were curve fitted using SigmaPlot10 (SPSS Inc) and the numerical data of curve fitting were used to determine AUC as described above, using for the calculation of AUC of a particular AlkP response the very same concentration used for the respective luciferase response. The AUC of AlkP responses of the isoflavonoids of a group were expressed as % of the AUC of the luciferase response of the respective archetypal isoflavone.

MCF-7 cells = assay: MCF-7 cell proliferation (MTT); format: cell-based, human; settings: for Induction of cell proliferation (MCF-7 cells) Agonism at 1μΜ, class: compounds 1 μM, 72 h; for activation at 1 µM: Homo sapiens, MCF7, 72 h, read-out: Induction of cell proliferation (MCF-7 cells) Agonism at 1μΜ (% of 0.1nM E2); for MCF-7 cell proliferation agonist effect compared to the effect of 0.1 nM estradiol: isoflavonoids 1 μM, statistically significant effects
Procedure: Test compound effects on the proliferation of MCF-7 and MDA-MB-231 cells were assessed as previously described.

ERα [1] = target: T1, ERα (Homo sapiens, UniProt P03372); assay: ER binding competitor assay (fluorescent estrogen ES2), ERα; parameters: purchased Invitrogen; settings: RBA = (IC50 estradiol/IC50 compound) × 100; ES2 1 nM; estradiol set equal to 100
T1 sequence (P03372 1-595): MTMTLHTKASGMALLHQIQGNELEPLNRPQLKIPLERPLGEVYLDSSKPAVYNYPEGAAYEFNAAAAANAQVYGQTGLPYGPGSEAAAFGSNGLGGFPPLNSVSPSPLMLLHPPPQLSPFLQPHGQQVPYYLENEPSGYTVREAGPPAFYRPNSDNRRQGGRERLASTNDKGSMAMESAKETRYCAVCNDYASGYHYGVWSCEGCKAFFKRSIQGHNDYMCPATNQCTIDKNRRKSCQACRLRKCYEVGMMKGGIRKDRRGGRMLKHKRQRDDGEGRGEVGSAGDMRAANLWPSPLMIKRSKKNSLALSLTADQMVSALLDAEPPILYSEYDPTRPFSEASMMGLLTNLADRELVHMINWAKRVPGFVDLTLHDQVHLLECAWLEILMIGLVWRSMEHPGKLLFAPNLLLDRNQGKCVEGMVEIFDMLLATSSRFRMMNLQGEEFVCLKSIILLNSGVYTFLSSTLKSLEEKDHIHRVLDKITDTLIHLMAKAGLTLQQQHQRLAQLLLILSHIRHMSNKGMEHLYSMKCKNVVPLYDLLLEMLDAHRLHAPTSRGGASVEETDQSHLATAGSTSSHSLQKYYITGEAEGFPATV

ERβ [2] = target: T2, ERβ (Homo sapiens, UniProt Q92731); assay: ER binding competitor assay (fluorescent estrogen ES2), ERβ; parameters: purchased Invitrogen; settings: for RBAβ / RBAα: ERβ-binding selectivity; for RBAβ: RBA = (IC50 estradiol/IC50 compound) × 100, ES2 1 nM, estradiol set equal to 100
ERβ [3] = target: T2, ERβ; assay: ERE-dependent luciferase gene transcription in HEK:ERβ cells; format: cell-based; parameters: expressed in transfected cells; host or cells: HEK-293 (HEK:ERβ clone, with pERE-tk-Luciferase)
Procedure: (§1) Assessment of ER/ERE-dependent luciferase gene transcription in MCF-7:D5L (express ERα) and HEK:ERβ cells (express ERβ) and determination of ER transcriptional agonism was carried as already described. Briefly, the cells were plated in 96-well plates at a density of 12,000 cells per well in phenol-red-free MEM (MCF-7:D5L cells) or phenol-red-free DMEM (HEK:ERβ cells) supplemented with 1 μg/mL insulin and 5% DCC-FBS. […] The AUC of the isoflavonoids of each group were then expressed as % of the AUC of the respective archetypal isoflavone. Since AUC data combine the efficacy as well as the potency of cell response into a single parameter, the %AUC data were considered here as a more reliable measure of relative ER/ERE-dependent luciferase expression of the test compounds.

ERα [4] = target: T1, ERα; assay: ERE-dependent luciferase gene transcription in MCF-7:D5L cells; format: cell-based; parameters: MCF-7:D5L cells, a clone of MCF-7 cells stably transfected with an Estrogen Response Element (ERE)-endowed reporter plasmid; endogenous in cells; host or cells: MCF-7:D5L (MCF-7 clone carrying pERE-Gl-Luciferase); settings: for Induction of ERE-dependent Luciferase Transcription (MCF-7:D5L cells) AUC (%): % of AUC of luciferase response of archetypal 3, 4, 5 or 8 up to 0.3, 10, 1.0 and 3.0 μM; for Induction of ERE-dependent Luciferase Transcription (MCF-7:D5L cells) EC25E2: concentration required to achieve 25% of the effect of 0.1 nM E2
Procedure: as §1

HT22 cells = settings: read-out: half maximal concentration for HT22 oxytosis inhibition; cited from earlier work
[5] = concentration required to achieve 50% of the effect of 0.1 nM E2
[6] = concentration required to achieve 50% of the effect of 0.1 nM E2, read-out: Induction of ERE-dependent Luciferase Transcription (MCF-7:D5L cells) EC50E2
[7] = 18 h; read-out: Induction of luciferase gene transcription through ERβ, HEK:ERβ cells, Agonism at 1μΜ (% of 0.1nM E2)
[8] = isoflavonoids 1 μM; statistically significant effects

T2 sequence (Q92731 whole entry): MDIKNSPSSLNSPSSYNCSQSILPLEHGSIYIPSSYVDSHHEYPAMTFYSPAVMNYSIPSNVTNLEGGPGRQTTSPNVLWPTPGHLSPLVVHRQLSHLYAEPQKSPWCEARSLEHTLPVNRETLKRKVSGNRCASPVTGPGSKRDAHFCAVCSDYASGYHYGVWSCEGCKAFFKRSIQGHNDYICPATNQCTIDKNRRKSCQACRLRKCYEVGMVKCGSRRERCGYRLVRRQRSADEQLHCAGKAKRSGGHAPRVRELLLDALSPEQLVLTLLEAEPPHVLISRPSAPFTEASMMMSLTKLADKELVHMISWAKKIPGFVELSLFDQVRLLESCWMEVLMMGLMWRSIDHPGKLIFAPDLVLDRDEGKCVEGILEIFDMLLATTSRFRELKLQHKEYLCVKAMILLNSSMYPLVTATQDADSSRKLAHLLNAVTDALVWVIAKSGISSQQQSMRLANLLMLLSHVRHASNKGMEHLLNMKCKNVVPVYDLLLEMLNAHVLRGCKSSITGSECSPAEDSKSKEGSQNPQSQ

SMILES | Induction of Alkaline Phosphatase Expression (Ishikawa cells) AUC (%) (Ishikawa cells) | Ratio of AUC (AlkP / Lucif) (Ishikawa cells) | EC (25% of 0.1 nM E2 effect) (Ishikawa cells) [µM] | EC50 (Ishikawa cells; [5]) [µM] | Induction of AlkP expression (Ishikawa cells) Agonism at 1μΜ, class (Ishikawa cells) | Induction of cell proliferation (MCF-7 cells) Agonism at 1μΜ, class (MCF-7 cells) | RBAβ / RBAα (ERβ [2]) | RBAβ (ERβ [2]) | Induction of ERE-dependent Luciferase Transcription (MCF-7:D5L cells) AUC (%) (ERα [4]) | Induction of luciferase gene transcription, MCF-7:D5L cells, Agonism at 1μΜ, class (ERα [4]; compounds 1 μM, 18 h) | Induction of ERE-dependent Luciferase Transcription (MCF-7:D5L cells) EC25E2 (ERα [4]) [µM] | EC50 (ERα [4]; [6]) [µM] | other results
COc1ccc(-c2coc3c(OC)c(O)ccc3c2=O)cc1 [Compound 2, 8-methoxyformononetin] | 0.5±0.2 | 0.71±0.15 | > 30 | > 30 | Marginal (⩽10%) | Marginal (⩽10%) | 2.50 | 0.15 ± 0.04 | 0.7±0.1 | Marginal (⩽10%) | >30 | > 30 | RBAα (ERα [1]): 0.06 ± 0.02; Induction of luciferase gene transcription, HEK:ERβ cells, Agonism at 1μΜ, class (ERβ [3]; compounds 1 μM; 18 h): Marginal (⩽10%)
COc1cc(O)cc2occ(-c3ccc(O)cc3)c(=O)c12 [Compound 4, isoprunetin] | 94±16 | 0.94±0.03 | 3.9 ± 0.19 | 7.94 ± 2.28 | Marginal (⩽10%) | – | 5.00 | 0.15 ± 0.05 | 100±14 | Marginal (⩽10%) | 3.72 ± 0.63 | 7.32 ± 2.18 | activation at 1 µM (MCF-7 cells): 19 ± 6%; MCF-7 cell proliferation agonist effect compared to the effect of 0.1 nM estradiol (MCF-7 cells): lower than; activation at 1 µM (ERβ [3]; [7]): 27 ± 5%; ERβ-dependent gene transcription agonist effect compared to the effect of 0.1 nM estradiol (ERβ [3]; [8]): lower than
COc1cc(-c2coc3cc(O)cc(OC)c3c2=O)ccc1O [Compound 6, 3΄-methoxyisoprunetin] | 182±8 | 0.63±0.01 | 1.6 ± 0.05 | 2.61 ± 0.29 | Marginal (⩽10%) | – | 4.50 | – | 289±14 | – | 0.98 ± 0.07 | 1.57 ± 0.24 | AlkP response lower than ERα-transcriptional response (relative AUC ratios) (Ishikawa cells): ~ 30%; activation at 1 µM (MCF-7 cells): 32 ± 3%; MCF-7 cell proliferation agonist effect compared to the effect of 0.1 nM estradiol (MCF-7 cells): lower than; RBAα (ERα [1]): 0.14 ± 0.04; activation at 1 µM (ERβ [3]; [7]): 81 ± 5%; Induction of luciferase gene transcription through ERα, MCF-7:D5L cells, Agonism at 1μΜ (% of 0.1nM E2) (ERα [4]; compounds 1 μM, estradiol 0.1 nM, 18 h): 22 ± 5 (Weak) ^* % of 0.1nM E2; ERα-dependent gene transcription agonist effect compared to the effect of 0.1 nM estradiol (ERα [4]; isoflavonoids 1 μM, statistically significant effects): lower than
COc1cc(OC2OC(CO)C(O)C(O)C2O)cc2occ(-c3ccc(O)cc3)c(=O)c12 (centres unmarked) [Compound 10, 7-O-glucopyranosyl-isoprunetin] | 109±8 | 1.58±0.12 | 3.48 ± 0.51 | 8.23 ± 1.24 | Marginal (⩽10%) | Marginal (⩽10%) | 1.50 | – | 69±5 | Marginal (⩽10%) | 6.50 ± 1.10 | 29.8 ± 5.2 | AlkP response higher than ERα-transcriptional response (relative AUC ratios) (Ishikawa cells): ~ 40%; Induction of luciferase gene transcription, HEK:ERβ cells, Agonism at 1μΜ, class (ERβ [3]; compounds 1 μM; 18 h): Marginal (⩽10%)
O=c1c(-c2ccc(OC3O[C@H](CO)[C@@H](O)[C@H](O)[C@H]3O)cc2)coc2c(C3O[C@H](CO)[C@@H](O)[C@H](O)[C@H]3O)c(O)cc(O)c12 (some centres unmarked) [Compound 14, 8-C,4΄-O-diglucopyranosyl-genistein] | 46±10 | 1.53±0.02 | – | – | Marginal (⩽10%) | Marginal (⩽10%) | 2.50 | 0.05 ± 0.02 | 30±13 | Marginal (⩽10%) | 3.57 ± 0.58 | – | AlkP response higher than ERα-transcriptional response (relative AUC ratios) (Ishikawa cells): ~ 40%; EC50 (Ishikawa cells): 6.42 ± 1.52 µM; activation at 1 µM (ERβ [3]; 18 h, read-out: Induction of luciferase gene transcription through ERβ, HEK:ERβ cells, Agonism at 1μΜ (% of 0.1nM E2)): 18 ± 1%; ERβ-dependent gene transcription agonist effect compared to the effect of 0.1 nM estradiol (ERβ [3]; [8]): lower than; EC50 (ERα [4]): 7.72 ± 3.08 µM
O=c1c(O)c(-c2ccc(O)c(O)c2)oc2cc(O)ccc12 [fisetin] | – | – | – | – | – | – | – | – | – | – | – | – | EC50 (HT22 cells): ≥ 3 µM
Oc1ccc(/C=C/c2cc(O)cc(O)c2)cc1 [resveratrol] | – | – | – | – | – | – | – | – | – | – | – | – | EC50 (HT22 cells): ≥ 3 µM
